Results published in patent publication US12281057B2 (VERTEX PHARMACEUTICALS INCORPORATED, priority 2017, dated 2025).
Where two headings read alike, the source gives them in different places.

Target: truncated form of human NaV 1.8 with full channel activity (Homo sapiens, UniProt Q9Y5Y9)
Assay: E-VIPR Assay Method A for detecting and measuring Nav inhibition (HEK cells, membrane potential FRET dyes, electrical stimulation)
Format: cell-based
Conditions: HEK cells expressing human NaV 1.8, HS (human serum) in compound loading buffer, 11 point dose response, top dose 3 μM
How it was run: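 HEK cells expressing truncated human NaV1.8, loaded with CC2-DMPE/DiSBAC6(3) FRET dyes, incubated 30 min at room temp with compound (0.625% DMSO), then electrically stimulated (1.25 A biphasic, 10 Hz, 10 s). Inhibition from 460/580 nm ratio Rf/Ri, normalised to positive and DMSO controls.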

[1] = Table 20A, read-out: Nav 1.8 MedChem Optical Assay EVIPR Assay Method A HS IC50
[2] = Table 20, read-out: Nav 1.8 MedChem Optical Assay EVIPR Assay Method A HS IC50

truncated form of human NaV 1.8 with full channel activity, sequence (Q9Y5Y9 126-1722 limits assumed): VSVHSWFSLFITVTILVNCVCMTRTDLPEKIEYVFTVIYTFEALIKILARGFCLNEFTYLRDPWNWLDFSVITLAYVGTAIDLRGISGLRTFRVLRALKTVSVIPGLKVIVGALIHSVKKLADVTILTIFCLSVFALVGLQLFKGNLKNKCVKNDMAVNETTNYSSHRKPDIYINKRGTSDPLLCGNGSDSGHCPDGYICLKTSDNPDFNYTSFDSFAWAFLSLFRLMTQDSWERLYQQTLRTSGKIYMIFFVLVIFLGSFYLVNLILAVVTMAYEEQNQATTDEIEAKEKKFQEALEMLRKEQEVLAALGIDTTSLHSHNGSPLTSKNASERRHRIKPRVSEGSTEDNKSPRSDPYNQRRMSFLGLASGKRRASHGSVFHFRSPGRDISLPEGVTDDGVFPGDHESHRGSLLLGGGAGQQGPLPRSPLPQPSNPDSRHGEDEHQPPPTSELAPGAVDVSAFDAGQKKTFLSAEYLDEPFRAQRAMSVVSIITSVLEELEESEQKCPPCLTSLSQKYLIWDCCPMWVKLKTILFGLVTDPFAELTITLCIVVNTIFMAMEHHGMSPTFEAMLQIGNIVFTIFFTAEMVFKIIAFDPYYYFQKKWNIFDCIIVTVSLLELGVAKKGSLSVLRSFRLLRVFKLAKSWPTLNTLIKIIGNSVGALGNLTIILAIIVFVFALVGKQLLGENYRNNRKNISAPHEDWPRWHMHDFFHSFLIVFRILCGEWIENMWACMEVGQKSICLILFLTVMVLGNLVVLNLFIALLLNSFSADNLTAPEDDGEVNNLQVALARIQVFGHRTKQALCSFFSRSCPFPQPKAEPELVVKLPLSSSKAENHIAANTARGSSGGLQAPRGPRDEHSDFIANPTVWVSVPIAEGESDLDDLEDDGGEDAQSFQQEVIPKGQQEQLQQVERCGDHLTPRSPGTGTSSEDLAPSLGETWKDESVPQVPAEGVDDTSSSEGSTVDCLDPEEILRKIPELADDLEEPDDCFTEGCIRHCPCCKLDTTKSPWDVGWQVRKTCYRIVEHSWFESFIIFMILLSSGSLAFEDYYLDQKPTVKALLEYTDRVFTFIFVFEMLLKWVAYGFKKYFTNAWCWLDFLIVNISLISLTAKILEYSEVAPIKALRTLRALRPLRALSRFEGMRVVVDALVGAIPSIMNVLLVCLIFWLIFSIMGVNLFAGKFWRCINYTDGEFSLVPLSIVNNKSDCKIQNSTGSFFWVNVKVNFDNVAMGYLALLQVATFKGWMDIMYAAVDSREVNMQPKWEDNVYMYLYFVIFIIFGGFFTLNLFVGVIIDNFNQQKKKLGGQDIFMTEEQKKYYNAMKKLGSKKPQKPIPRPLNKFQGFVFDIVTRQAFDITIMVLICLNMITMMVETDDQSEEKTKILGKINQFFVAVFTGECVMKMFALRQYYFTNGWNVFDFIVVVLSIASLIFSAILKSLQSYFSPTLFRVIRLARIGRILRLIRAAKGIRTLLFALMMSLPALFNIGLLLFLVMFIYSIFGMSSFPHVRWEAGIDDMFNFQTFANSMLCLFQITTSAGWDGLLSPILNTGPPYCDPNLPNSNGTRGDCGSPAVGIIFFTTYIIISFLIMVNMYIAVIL

Structure (SMILES): NC(=O)c1cc(NC(=O)c2c(Oc3ccc(OC(F)(F)F)cc3O)ccc(C(F)(F)F)c2F)ccc1F [Compound 142, N-(3-Carbamoyl-4-fluoro-phenyl)-2-fluoro-6-[2-hydroxy-4-(trifluoromethoxy)phenoxy]-3-(trifluoromethyl)benzamide]
- IC50 [1]: 310 nM

Structure (SMILES): COc1cc(OC(F)(F)F)ccc1Oc1ccc(C(F)(F)F)c(F)c1C(=O)Nc1ccc(F)c(C(N)=O)c1 [Compound 2, N-(3-carbamoyl-4-fluoro-phenyl)-2-fluoro-6-[2-methoxy-4-(trifluoromethoxy)phenoxy]-3-(trifluoromethyl)benzamide]
- IC50 [2]: 1 nM

Structure (SMILES): COc1cc(OC(F)(F)F)ccc1Oc1cc(C(F)(F)F)cc(F)c1C(=O)Nc1cc(C(N)=O)ncc1C [Compound 153, 4-[[2-Fluoro-6-[2-methoxy-4-(trifluoromethoxy)phenoxy]-4-(trifluoromethyl)benzoyl]amino]-5-methyl-pyridine-2-carboxamide]
- IC50 [1]: 22 nM

Structure (SMILES): NC(=O)c1ccc(NC(=O)c2c(Oc3ccc(OC(F)(F)F)cc3)ccc(C(F)(F)F)c2F)cc1 [Compound 264, N-(4-carbamoylphcnyl)-2-fluoro-6-(4-(trifluoromethoxy)phenoxy)-3-(trifluoromethyl)benzamide]
- IC50 [1]: 54 nM

Structure (SMILES): NC(=O)c1ccc(NC(=O)c2c(Oc3ccc(OC(F)(F)F)cc3)ccc3c2CCC3(F)F)cn1 [Compound 192, 5-[[1,1-Difluoro-5-[4-(trifluoromethoxy)phenoxy]indane-4-carbonyl]amino]pyridine-2-carboxamide]
- IC50 [1]: 420 nM

Structure (SMILES): COc1cc(OC(F)(F)F)ccc1Oc1ccc(F)c(F)c1C(=O)Nc1ccc(F)c(C(N)=O)c1 [Compound 55, N-(3-Carbamoyl-4-fluoro-phenyl)-2,3-difluoro-6-[2-methoxy-4-(trifluoromethoxy)phenoxy]benzamide]
- IC50 [1]: 18 nM

Structure (SMILES): [2H]C([2H])([2H])c1c(Oc2ccc(C(F)(F)F)c(F)c2C(=O)Nc2ccnc(C(N)=O)c2)ccc(OC(F)(F)F)c1F [Compound 232, 4-[[2-Fluoro-6-[3-fluoro-2-(trideuteriomethyl)-4-(trifluoromethoxy)phenoxy]-3-(trifluoromethyl)benzoyl]amino]pyridine-2-carboxamide]
- IC50 [1]: 17 nM

Structure (SMILES): [2H]C([2H])([2H])Oc1cc(OC(F)(F)F)ccc1Oc1ccc(OC(F)F)c(F)c1C(=O)Nc1ccc(C(N)=O)nc1 [Compound 198, 5-[[3-(Difluoromethoxy)-2-fluoro-6-[2-(trideuteriomethoxy)-4-(trifluoromethoxy)phenoxy]benzoyl]amino]pyridine-2-carboxamide]
- IC50 [1]: 150 nM

Structure (SMILES): CCOc1c(C(F)(F)F)ncc(Oc2ccc(OC(F)(F)F)cc2OC)c1C(=O)Nc1ccnc(C(N)=O)c1 [Compound 206, N-(2-Carbamoyl-4-pyridyl)-3-ethoxy-5-[2-methoxy-4-(trifluoromethoxy)phenoxy]-2-(trifluoromethyl)pyridine-4-carboxamide]
- IC50 [1]: 45 nM

Structure (SMILES): [2H]C([2H])([2H])Oc1cc(OC(F)(F)F)ccc1Oc1cc(OC(F)(F)F)ccc1C(=O)Nc1ccnc(C(N)=O)c1 [Compound 147, 4-[[2-[2-(Trideuteriomethoxy)-4-(trifluoromethoxy)phenoxy]-4-(trifluoromethoxy)benzoyl]amino]pyridine-2-carboxamide]
- IC50 [1]: 130 nM

Structure (SMILES): NC(=O)c1cc(NC(=O)c2c(F)c(C(F)(F)F)cc(OCc3ccccc3)c2Oc2ccc(OC(F)(F)F)cc2)ccc1F [Compound 217, 5-Benzyloxy-N-(3-carbamoyl-4-fluoro-phenyl)-2-fluoro-6-[4-(trifluoromethoxy)phenoxy]-3-(trifluoromethyl)benzamide]
- IC50 [1]: 1100 nM

Structure (SMILES): NC(=O)c1cc(NC(=O)c2c(Oc3ccc(OC(F)(F)F)c(F)c3)ccc(OC(F)(F)F)c2F)ccn1 [Compound 241, 4-[[2-fluoro-6-[3-fluoro-4-(trifluoromethoxy)phenoxy]-3-(trifluoromethoxy)benzoyl]amino]pyridine-2-carboxamide]
- IC50 [1]: 38 nM

Structure (SMILES): NC(=O)c1cc(NC(=O)c2c(Cl)cc(Cl)cc2Oc2ccc(F)cc2)ccn1 [Compound 177, 4-[[2,4-Dichloro-6-(4-fluorophenoxy)benzoyl]amino]pyridine-2-carboxamide]
- IC50 [1]: 460 nM

Structure (SMILES): COc1c(Oc2ccc(C(F)(F)F)c(F)c2C(=O)Nc2ccnc(C(N)=O)c2)ccc(OC(F)(F)F)c1F [Compound 26, 4-[[2-fluoro-6-[3-fluoro-2-methoxy-4-(trifluoromethoxy)phenoxy]-3-(trifluoromethyl)benzoyl]amino]pyridine-2-carboxamide]
- IC50 [2]: 2 nM

Structure (SMILES): [2H]C([2H])([2H])Oc1c(Oc2cc(Cl)cc(Cl)c2C(=O)Nc2ccnc(C(N)=O)c2)ccc(OC(F)(F)F)c1F [Compound 224, 4-[[2,4-Dichloro-6-[3-fluoro-2-(trideuteriomethoxy)-4-(trifluoromethoxy)phenoxy]benzoyl]amino]pyridine-2-carboxamide]
- IC50 [1]: 9 nM

Structure (SMILES): [2H]C([2H])([2H])Oc1c(Oc2cc(Cl)c(C(F)F)c(OC)c2C(=O)Nc2ccnc(C(N)=O)c2)ccc(OC(F)(F)F)c1F [Compound 233]
- IC50 [1]: 4 nM

Structure (SMILES): [2H]C([2H])([2H])Oc1cc(OC(F)(F)F)ccc1Oc1ccc(C(F)(F)F)c(F)c1C(=O)Nc1cc[n+]([O-])c(C(N)=O)c1 [Compound 115, 4-[[2-Fluoro-6-[2-(trideuteriomethoxy)-4-(trifluoromethoxy)phenoxy]-3-(trifluoromethyl)benzoyl]amino]-1-oxido-pyridin-1-ium-2-carboxamide]
- IC50 [1]: 6 nM

Structure (SMILES): COc1cc(OC(F)(F)F)ccc1Oc1ccc(C(F)(F)F)c(F)c1C(=O)Nc1cccc(C(N)=O)c1 [Compound 44, N-(3-carbamoylphenyl)-2-fluoro-6-[2-methoxy-4-(trifluoromethoxy)phenoxy]-3-(trifluoromethyl)benzamide]
- IC50 [1]: 5 nM

Structure (SMILES): NC(=O)c1cc(NC(=O)c2c(Oc3ccc(OC(F)(F)F)cc3O)ccc(C(F)(F)F)c2F)ccn1 [Compound 214, 4-[[2-Fluoro-6-[2-hydroxy-4-(trifluoromethoxy)phenoxy]-3-(trifluoromethyl)benzoyl]amino]pyridine-2-carboxamide]
- IC50 [1]: 660 nM

Structure (SMILES): COc1cc(OC(F)(F)F)ccc1Oc1ccc(C(F)(F)C(F)(F)F)cc1C(=O)Nc1ccnc(C(N)=O)c1 [Compound 81]
- IC50 [1]: 38 nM

Structure (SMILES): COc1cc(OC(F)(F)F)ccc1Oc1ccc(C(F)(F)F)c(F)c1C(=O)Nc1ccc(F)c(C(=O)N(C)C)c1 [Compound 95, N-[3-(dimethylcarbamoyl)-4-fluoro-phenyl]-2-fluoro-6-[2-methoxy-4-(trifluoromethoxy)phenoxy]-3-(trifluoromethyl)benzamide]
- IC50 [1]: 45 nM

Structure (SMILES): NC(=O)c1cc(NC(=O)c2cc(C(F)(F)C(F)(F)F)ccc2Oc2ccc(OC(F)(F)F)cc2)ccn1 [Compound 80, 4-[[5-(1,1,2,2,2-pentafluoroethyl)-2-[4-(trifluoromethoxy)phenoxy]benzoyl]amino]pyridine-2-carboxamide]
- IC50 [1]: 127 nM

Structure (SMILES): [2H]C([2H])([2H])Oc1cc(OC(F)(F)F)ccc1Oc1ccc(C(F)(F)F)c(F)c1C(=O)Nc1cccc(C(N)=O)n1 [Compound 168, 6-[[2-Fluoro-6-[2-(trideuteriomethoxy)-4-(trifluoromethoxy)phenoxy]-3-(trifluoromethyl)benzoyl]amino]pyridine-2-carboxamide]
- IC50 [1]: 140 nM

Structure (SMILES): [2H]C([2H])([2H])Oc1cc(OC(F)(F)F)ccc1Oc1ccc(OC(F)(F)F)c(F)c1C(=O)Nc1ccnc(C(N)=O)c1 [Compound 8, 4-[[2-fluoro-6-[2-(trideuteriomethoxy)-4-(trifluoromethoxy)phenoxy]-3-(trifluoromethoxy)benzoyl]amino]pyridine-2-carboxamide]
- IC50 [2]: 3 nM

Structure (SMILES): COc1cc(Oc2ccc(C(F)(F)F)c(F)c2C(=O)Nc2ccc(F)c(C(N)=O)c2)ccc1OC(F)(F)F [Compound 126, N-(3-Carbamoyl-4-fluoro-phenyl)-2-fluoro-6-[3-methoxy-4-(trifluoromethoxy)phenoxy]-3-(trifluoromethyl)benzamide]
- IC50 [1]: 47 nM

Structure (SMILES): [2H]C([2H])([2H])Oc1cc(OC(F)(F)F)ccc1Oc1ccc(C(F)(F)F)c(OC)c1C(=O)Nc1cc(C(N)=O)ncc1C [Compound 146, 4-[[2-Methoxy-6-[2-(trideuteriomethoxy)-4-(trifluoromethoxy)phenoxy]-3-(trifluoromethyl)benzoyl]amino]-5-methyl-pyridine-2-carboxamide]
- IC50 [1]: 39 nM

Structure (SMILES): COc1cc(OC(F)(F)F)ccc1Oc1cc(C2CC2)c(F)cc1C(=O)Nc1ccnc(C(N)=O)c1 [Compound 116, 4-[[4-Cyclopropyl-5-fluoro-2-[2-methoxy-4-(trifluoromethoxy)phenoxy]benzoyl]amino]pyridine-2-carboxamide]
- IC50 [1]: 145 nM

Structure (SMILES): COc1cc(F)ccc1Oc1cc(Cl)cc(Cl)c1C(=O)Nc1ccnc(C(N)=O)c1 [Compound 178, 4-[[2,4-Dichloro-6-(4-fluoro-2-methoxy-phenoxy)benzoyl]amino]pyridine-2-carboxamide]
- IC50 [1]: 76 nM

Structure (SMILES): NC(=O)c1cc(NC(=O)c2c(Oc3ccc(OC(F)(F)F)c(F)c3)ccc(C(F)(F)F)c2F)ccc1F [Compound 18, N-(3-carbamoyl-4-fluoro-phenyl)-2-fluoro-6-[3-fluoro-4-(trifluoromethoxy)phenoxy]-3-(trifluoromethyl)benzamide]
- IC50 [2]: 9 nM

Structure (SMILES): NC(=O)c1cc(NC(=O)c2c(Oc3ccc(OC(F)(F)F)cc3F)ccc(C(F)(F)F)c2F)ccn1 [Compound 90, 4-[[2-fluoro-6-[2-fluoro-4-(trifluoromethoxy)phenoxy]-3-(trifluoromethyl)benzoyl]amino]pyridine-2-carboxamide]
- IC50 [1]: 38 nM

Structure (SMILES): NC(=O)c1cc(NC(=O)c2c(Oc3ccc(OC(F)(F)F)cc3)ccc(OC(F)(F)F)c2F)ccn1 [Compound 243, 4-[[2-fluoro-3-(trifluoromethoxy)-6-[4-(trifluoromethoxy)phenoxy]benzoyl]amino]pyridine-2-carboxamide]
- IC50 [1]: 24 nM
